# According to US20230173089A1, “Q-ER PEPTIDE” (Biotempt B.V., priority 2019, published 2023):
# Legend:
# mTOR = details: cited from earlier work; for activity as activators of mTOR or inhibitors of autophagy compared with other amino acids: alone or in combination
# [1] = tested on: Wistar rats with hemorrhagic shock; experiment: hemorrhagic shock and resuscitation in rats (Example 15, SIRS); format: in vivo, rat; details: single injection 30 minutes after induction of hemorrhagic shock
# Method: Severe hemorrhagic shock followed by resuscitation induces a massive inflammatory response, which may culminate into systemic inflammatory response syndrome, multiple organ dysfunction syndrome and finally death. Treatments that effectively prevent this inflammation are limited so far. […] Considering this powerful anti-inflammatory effect, it was investigated whether administration of 0.5 ml i.p. of synthetic heptapeptide SEQ ID NO:5 (AQGVAPG), SEQ ID NO:6 (LQGVAPG), SEQ ID NO:7 (AQGVLPG), SEQ ID NO:8 (LQGVLPG), dissolved in 0.9% NaCl at a concentration of 25 mg/ml, or vehicle (0.9% NaCl), respectively, during the SIRS-phase of hemorrhagic shock, is able to attenuate the inflammatory response associated with this condition.
# Hemorrhagic shock is induced in groups of 6 rats for 60 minutes by blood withdrawal until a mean arterial pressure of 40 mmHg is reached. Thirty minutes after induction of hemorrhagic shock, rats received a single injection with one of synthetic heptapeptide SEQ ID NO:5 (AQGVAPG), SEQ ID NO:6 (LQGVAPG), SEQ ID NO:7 (AQGVLPG), SEQ ID NO:8 (LQGVLPG), or 0.9% NaCl solution, as control. Treatment with synthetic heptapeptide SEQ ID NO:5 (AQGVAPG), SEQ ID NO:6 (LQGVAPG), SEQ ID NO:7 (AQGVLPG), SEQ ID NO:8 (LQGVLPG) prevents systemic release of TNF-α and IL-6 and is associated with reduced TNF-α, IL-6 and E-selectin mRNA transcript levels in the liver, with reduced neutrophil infiltration into the liver and is associated with reduced liver damage.
# Animals. Adult male specific pathogen-free Wistar rats weighing 350-400 g are used. Rats are housed under barrier conditions at 25° C. with a twelve-hour light/dark cycle, and are allowed food and water ad libitum. The experimental protocol adheres to the rules laid down in national law that serves the implementation of “Guidelines on the protection of experimental animals” by the Council of Europe (1986), Directive 86/609/EC. hCG-related synthetic oligopeptides. Rats are food deprived overnight before the start of the experiment, but are allowed water ad libitum. Rats are anesthetized using a mixture of N2 O/O2 /isoflurane (Pharmachemie B.V., Haarlem, The Netherlands). Body temperature is continuously maintained at 37.5° C. by placing the rats on a thermo controlled “half-pipe” (UNO, Rotterdam, The Netherlands). Endotracheal intubation is performed, and rats are ventilated at 60 breaths per minute with a mixture of N2 O/O2 /isoflurane. Polyethylene tubes (PE-50, Becton Dickinson; St. Michielsgestel, The Netherlands) are flushed with heparin and placed via the right carotid artery in the aorta and in the right internal jugular vein. A 5 cm midline laparotomy is performed and a supra pubic catheter is inserted to monitor urine production. Hemorrhagic shock is induced by blood withdrawal, reducing the circulating blood volume until a mean arterial pressure (MAP) of 40 mmHg is reached. This level of hypotension is maintained for 60 minutes. Thirty minutes after the induction of hemorrhagic shock, rats received a single intravenous (IV) bolus injection of heptapeptide solution or vehicle. Sixty minutes after induction of hemorrhagic shock, rats are resuscitated by four times their shed blood volume over a period of 30 minutes to normalize the MAP, and monitored for another 120 minutes after which they are sacrificed. The rats receive no heparin before or during the experiment. Sham animals are subjected to the same surgical procedure as the hemorrhagic shock animals, but without blood withdrawal and administration of heptapeptide.
# [2] = tested on: non-obese diabetic (NOD) mouse; experiment: type 1 diabetes development in NOD mice; format: in vivo; details: 250 µg i.p. three times per week, female NOD mice from 14 weeks, max five weeks
# Excerpt: The non-obese diabetic (NOD) mouse spontaneously develops type 1 diabetes (T1D) and has served as a model for understanding the genetic and immunological basis, and treatment, of T1D. NOD mice are used in these studies. Most diabetic NOD mice suffer from insulin deficiency diabetes, with the underlying cause of the pancreatic beta-cell loss or destruction most likely a result of an inflammatory process in the micro-vasculature surrounding endocrine beta-cell tissues and genetically accelerated autoimmunity is suspected. Diabetes is assessed by measurement of the venous blood glucose level using an Abbott Medisense Precision glucometer. Mice are considered diabetic after two consecutive glucose measurements ≥11 mmol/l (200 mg/dl). Onset of diabetes is dated from the first consecutive reading of ≥11 mmol/l. In vivo treatment: groups of 14 weeks-old female NOD mice (n=12 per group) are treated with synthetic peptide SEQ ID NO:5 (AQGVAPG), SEQ ID NO:6 (LQGVAPG), SEQ ID NO:7 (AQGVLPG), SEQ ID NO:8 (LQGVLPG) or vehicle (PBS), respectively. Treatment is done by injecting 250 µg peptide diluted in PBS three times per week intraperitoneally (i.p.). Control mice are treated with PBS only. The treatment is discontinued when all PBS treated NOD mice in the experiment have developed diabetes. This is generally at the age of 19 weeks. The peptide and PBS treatments are done for a maximum of five weeks. In instances of hyperglycaemia of ≥20 mmol/l the mice are killed to avoid prolonged discomfort. The remainder mice are kept alive up to the age of 35 weeks without any further treatment.
# Human monocytes = experiment: monocyte chemotaxis in 48-well microchemotaxis chamber; format: cell-based; details: for chemotactic activity at a stated concentration: 0.1 mmol/L; for induction of monocyte chemotaxis: 10-9 to 10-5 mol/L; for peptide derived chemotactic activity under competition with VGVAPG: competition with SEQ ID NO:19; for monocyte chemotaxis in the presence of glucose, fructose, or mannose: control sugars; for monocyte chemotaxis in the presence of lactose: lactose dissociates the 67-kD ERC; for chemotactic response to f-MLF after preincubation of monocytic cells with peptide: preincubation 30 minutes; for chemotactic potency compared with f-MLF: same concentration of f-MLF
# Method: Human monocytes are isolated from freshly drawn blood of healthy volunteers using serial […] gradient centrifugation, as described elsewhere. Cells are cultured for 16 hours in RPMI-1640 media supplemented with 0.5% human serum to become quiescent after isolation. Purity of the cells is >95% as determined by flow cytometry analysis. Monocyte chemotaxis is assayed in a 48-well microchemotaxis chamber (Neuroprobe, Gaithersburg, MD) in serum-free media. Wells in the upper and lower chamber are separated by a polyvinylpyrrolidone-free polycarbonate membrane (pore size 5 µm; Costar). Freshly isolated monocytes at a density of 5 × 10^5/mL are incubated for 2.5 hours with recombinant C-peptide (Sigma), before migrated cells on the bottom face of the filter are stained and counted under the light microscope. Maximal chemotactic activity is measured with […] N -formyl-methionyl-leucyl-phenylalanine (f-MLF; Sigma Chemical Co), and checkerboard analysis is used to distinguish chemotaxis from chemokinesis.
# Chemotaxis is tested with SEQ ID NO:12 ([…]), SEQ ID NO:11 ([…]), SEQ ID NO:24 ([…]) or SEQ ID NO:25 ([…]). Exposure of cells to lactose is used to specifically dissociate the 67-kD ERC. Controls for lactose included glucose, fructose, and mannose, none of which affect the 67-kD ERC. In each case, monocytes cells are exposed to the relevant concentrations of SEQ ID NO:12 ([…]), SEQ ID NO:11 ([…]), SEQ ID NO:24 ([…]) or SEQ ID NO:25 ([…]) (10-9 to 10-5 mol/L), for 30 minutes before the chemotaxis assays are started. […] Monocytes in the upper wells of the assay chamber are exposed to varying concentrations of SEQ ID NO:12 ([…]), SEQ ID NO:11 ([…]), SEQ ID NO:24 ([…]) or SEQ ID NO:25 ([…]) for 30 minutes before stimulation by SEQ ID NO:19 (VGVAPG) (0.1 nmol/L - 10 nmol/L) in the lower wells. […] SEQ ID NO:12 ([…]), SEQ ID NO:11 ([…]), SEQ ID NO:24 ([…]), or SEQ ID NO:25 ([…]) derived chemotactic activity is eliminated by competition with Val-Gly-Val-[…]-Pro-Gly (SEQ ID NO:19 (VGVAPG)), a repetitive peptide found in human elastin that binds to cellular elastin receptors. Monocyte chemotaxis in response to both SEQ ID NO:19 (VGVAPG) or SEQ ID NO:12 ([…]), SEQ ID NO:11 ([…]), SEQ ID NO:24 ([…]), or SEQ ID NO:25 ([…]) is abolished in the presence of lactose, a galactosugar that specifically dissociates the 67-kD ERC, but it is unaffected by glucose, fructose, or mannose.
compound,measurement,setting,value
C[C@H](N)C(=O)O [L-Alanine],activity as activators of mTOR or inhibitors of autophagy compared with other amino acids,mTOR,more potent
same,mTOR associated autophagic inhibitory effects on human cells,mTOR,most prominent
N=C(N)NCCC[C@H](N)C(=O)O [L-Arginine],activity as activators of mTOR or inhibitors of autophagy compared with other amino acids,mTOR,more potent
N[C@@H](CCC(=O)O)C(=O)O [L-Glutamic Acid],activity as activators of mTOR or inhibitors of autophagy compared with other amino acids,mTOR,no or opposite effects
NCC(=O)O [L-Glycine],activity as activators of mTOR or inhibitors of autophagy compared with other amino acids,mTOR,more potent
same,amino-acid-stimulated mTOR complex 1 activation,mTOR,improves
CC[C@H](C)[C@H](N)C(=O)O [L-Isoleucine],activity as activators of mTOR or inhibitors of autophagy compared with other amino acids,mTOR,more potent
CC(C)C[C@H](N)C(=O)O [L-Leucine],activity as activators of mTOR or inhibitors of autophagy compared with other amino acids,mTOR,more potent
same,mTOR associated autophagic inhibitory effects on human cells,mTOR,most prominent
NCCCC[C@H](N)C(=O)O [L-Lysine],activity as activators of mTOR or inhibitors of autophagy compared with other amino acids,mTOR,no or opposite effects
CSCC[C@H](N)C(=O)O [L-Methionine],activity as activators of mTOR or inhibitors of autophagy compared with other amino acids,mTOR,no or opposite effects
N[C@@H](Cc1ccccc1)C(=O)O [L-Phenylalanine],activity as activators of mTOR or inhibitors of autophagy compared with other amino acids,mTOR,no or opposite effects
O=C(O)[C@@H]1CCCN1 [L-Proline],activity as activators of mTOR or inhibitors of autophagy compared with other amino acids,mTOR,more potent
same,mTOR associated autophagic inhibitory effects on human cells,mTOR,most prominent
N[C@@H](CO)C(=O)O [L-Serine],activity as activators of mTOR or inhibitors of autophagy compared with other amino acids,mTOR,no or opposite effects
C[C@@H](O)[C@H](N)C(=O)O [L-Threonine],activity as activators of mTOR or inhibitors of autophagy compared with other amino acids,mTOR,no or opposite effects
N[C@@H](Cc1ccc(O)cc1)C(=O)O [L-Tyrosine],activity as activators of mTOR or inhibitors of autophagy compared with other amino acids,mTOR,no or opposite effects
CC(C)[C@H](N)C(=O)O [L-Valine],activity as activators of mTOR or inhibitors of autophagy compared with other amino acids,mTOR,more potent
AQGVAPG (Immunomodulatory peptide) [SEQ ID NO:5],"TNF-α, IL-6 and E-selectin mRNA transcript levels in the liver",[1],reduced
same,liver damage,[1],reduced
same,neutrophil infiltration into the liver,[1],reduced
same,systemic release of TNF-α and IL-6,[1],prevents
same,beta-cell failure with diabetes development (occurrence of diabetes after the age of 17 weeks),[2],significantly reduces
AQGVLPGQ (Immunomodulatory peptide) [SEQ ID NO:11],chemotactic activity at a stated concentration,Human monocytes,good activity
same,induction of monocyte chemotaxis,Human monocytes,induce chemotaxis in a concentration-dependent manner
same,peptide derived chemotactic activity under competition with VGVAPG,Human monocytes,eliminated
same,"monocyte chemotaxis in the presence of glucose, fructose, or mannose",Human monocytes,unaffected
same,monocyte chemotaxis in the presence of lactose,Human monocytes,abolished
same,chemotactic response to f-MLF after preincubation of monocytic cells with peptide,Human monocytes,does not alter
same,chemotactic potency compared with f-MLF,Human monocytes,considerably more potent
AQGVQPGQ (Immunomodulatory peptide) [SEQ ID NO:25],chemotactic activity at a stated concentration,Human monocytes,good activity
same,induction of monocyte chemotaxis,Human monocytes,induce chemotaxis in a concentration-dependent manner
same,peptide derived chemotactic activity under competition with VGVAPG,Human monocytes,eliminated
same,"monocyte chemotaxis in the presence of glucose, fructose, or mannose",Human monocytes,unaffected
same,monocyte chemotaxis in the presence of lactose,Human monocytes,abolished
same,chemotactic response to f-MLF after preincubation of monocytic cells with peptide,Human monocytes,does not alter
same,chemotactic potency compared with f-MLF,Human monocytes,considerably more potent
LQGVLPGQ (Immunomodulatory peptide) [SEQ ID NO:12],chemotactic activity at a stated concentration,Human monocytes,good activity
same,induction of monocyte chemotaxis,Human monocytes,induce chemotaxis in a concentration-dependent manner
same,peptide derived chemotactic activity under competition with VGVAPG,Human monocytes,eliminated
same,"monocyte chemotaxis in the presence of glucose, fructose, or mannose",Human monocytes,unaffected
same,monocyte chemotaxis in the presence of lactose,Human monocytes,abolished
same,chemotactic response to f-MLF after preincubation of monocytic cells with peptide,Human monocytes,does not alter
same,chemotactic potency compared with f-MLF,Human monocytes,considerably more potent
LQGVQPGQ (Immunomodulatory peptide) [SEQ ID NO:24],chemotactic activity at a stated concentration,Human monocytes,good activity
same,induction of monocyte chemotaxis,Human monocytes,induce chemotaxis in a concentration-dependent manner
same,peptide derived chemotactic activity under competition with VGVAPG,Human monocytes,eliminated
same,"monocyte chemotaxis in the presence of glucose, fructose, or mannose",Human monocytes,unaffected
same,monocyte chemotaxis in the presence of lactose,Human monocytes,abolished
same,chemotactic response to f-MLF after preincubation of monocytic cells with peptide,Human monocytes,does not alter
same,chemotactic potency compared with f-MLF,Human monocytes,considerably more potent
"VGVAPG (Immunomodulatory peptide) [SEQ ID NO:19, reference compound]",monocyte migration,Human monocytes; 0.1 nmol/L - 10 nmol/L in the lower wells,concentration-dependent increase
same,"monocyte chemotaxis in the presence of glucose, fructose, or mannose",Human monocytes,unaffected
same,monocyte chemotaxis in the presence of lactose,Human monocytes,abolished
